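Compound exposure: 48 hours, 5 concentrations, 96-well plates. Here, GI50 denotes the concentration required for 50% inhibition of growth. TGI denotes the concentration required for complete inhibition of growth.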
Experiments:
Test in all cases: NCI-60 cell line screen, 48 h
SK-MEL-2 melanoma = tested on: SK-MEL-2 melanoma
SNB-19 CNS = tested on: SNB-19 CNS
U251 CNS = tested on: U251 CNS
OVCAR-8 ovarian = tested on: OVCAR-8 ovarian
OVCAR-5 ovarian = tested on: OVCAR-5 ovarian
MDA-MB-435 = tested on: MDA-MB-435
T-47D breast = tested on: T-47D breast
SW-620 colon = tested on: SW-620 colon
RXF 393 renal = tested on: RXF 393 renal
CAKI-1 renal = tested on: CAKI-1 renal
NCI/ADR-RES ovarian = tested on: NCI/ADR-RES ovarian
HOP-62 NSCLC = tested on: HOP-62 NSCLC
HCT-116 colon = tested on: HCT-116 colon
NCI-H460 lung = tested on: NCI-H460 lung
SF-295 CNS = tested on: SF-295 CNS
SK-MEL-5 melanoma = tested on: SK-MEL-5 melanoma
ACHN renal = tested on: ACHN renal
RPMI-8226 leukemia = tested on: RPMI-8226 leukemia
OVCAR-3 ovarian = tested on: OVCAR-3 ovarian
HCC-2998 colon = tested on: HCC-2998 colon
MDA-MB-231 breast = tested on: MDA-MB-231 breast
NCI-H226 lung = tested on: NCI-H226 lung
UACC-62 melanoma = tested on: UACC-62 melanoma
MALME-3M melanoma = tested on: MALME-3M melanoma
MOLT-4 leukemia = tested on: MOLT-4 leukemia
HL-60(TB) leukemia = tested on: HL-60(TB) leukemia
SR leukemia = tested on: SR leukemia
DU-145 prostate = tested on: DU-145 prostate
HOP-92 NSCLC = tested on: HOP-92 NSCLC
SNB-75 CNS = tested on: SNB-75 CNS
786-0 renal = tested on: 786-0 renal
COLO 205 colon = tested on: COLO 205 colon
HS 578T breast = tested on: HS 578T breast
LOX IMVI melanoma = tested on: LOX IMVI melanoma
MCF7 breast = tested on: MCF7 breast
HT29 colon = tested on: HT29 colon
IGROV1 ovarian = tested on: IGROV1 ovarian
PC-3 prostate = tested on: PC-3 prostate
K-562 leukemia = tested on: K-562 leukemia
SK-MEL-28 melanoma = tested on: SK-MEL-28 melanoma
CCRF-CEM leukemia = tested on: CCRF-CEM leukemia
SF-539 CNS = tested on: SF-539 CNS
SF-268 CNS = tested on: SF-268 CNS
SN12C renal = tested on: SN12C renal
HCT-15 colon = tested on: HCT-15 colon
A498 renal = tested on: A498 renal
NCI-H522 lung = tested on: NCI-H522 lung
UO-31 renal = tested on: UO-31 renal

Question: Which results are given for `Cc1nc2ccccc2c(/C=C/c2ccc(Cl)cc2)c1C(=O)/C=C/c1ccc(F)cc1`?
Answer: GI50 (SK-MEL-2 melanoma): 1870 nM; TGI (SK-MEL-2 melanoma): 3790 nM; GI50 (SNB-19 CNS): 1540 nM; TGI (SNB-19 CNS): 2890 nM; GI50 (U251 CNS): 1440 nM; TGI (U251 CNS): 2920 nM; GI50 (OVCAR-8 ovarian): 1620 nM; TGI (OVCAR-8 ovarian): 4160 nM; GI50 (OVCAR-5 ovarian): 1630 nM; TGI (OVCAR-5 ovarian): 3490 nM; GI50 (MDA-MB-435): 1550 nM; TGI (MDA-MB-435): 3210 nM; GI50 (T-47D breast): 1100 nM; TGI (T-47D breast): 2860 nM; GI50 (SW-620 colon): 1420 nM; TGI (SW-620 colon): 3430 nM; GI50 (RXF 393 renal): 1660 nM; TGI (RXF 393 renal): 3160 nM; GI50 (CAKI-1 renal): 1110 nM; TGI (CAKI-1 renal): 2310 nM; GI50 (NCI/ADR-RES ovarian): 1850 nM; TGI (NCI/ADR-RES ovarian): 4110 nM; GI50 (HOP-62 NSCLC): 1890 nM; TGI (HOP-62 NSCLC): 3710 nM; GI50 (HCT-116 colon): 531 nM; TGI (HCT-116 colon): 2140 nM; GI50 (NCI-H460 lung): 1390 nM; TGI (NCI-H460 lung): 2850 nM; GI50 (SF-295 CNS): 1750 nM; TGI (SF-295 CNS): 3220 nM; GI50 (SK-MEL-5 melanoma): 1620 nM; TGI (SK-MEL-5 melanoma): 2970 nM; GI50 (ACHN renal): 1510 nM; TGI (ACHN renal): 2830 nM; GI50 (RPMI-8226 leukemia): 1370 nM; TGI (RPMI-8226 leukemia): 4480 nM; GI50 (OVCAR-3 ovarian): 1460 nM; TGI (OVCAR-3 ovarian): 2800 nM; GI50 (HCC-2998 colon): 1530 nM; TGI (HCC-2998 colon): 3010 nM; GI50 (MDA-MB-231 breast): 1920 nM; TGI (MDA-MB-231 breast): 4770 nM; GI50 (NCI-H226 lung): 1680 nM; TGI (NCI-H226 lung): 3570 nM; GI50 (UACC-62 melanoma): 1490 nM; TGI (UACC-62 melanoma): 2910 nM; GI50 (MALME-3M melanoma): 1640 nM; TGI (MALME-3M melanoma): 3010 nM; GI50 (MOLT-4 leukemia): 1190 nM; TGI (MOLT-4 leukemia): 7200 nM; GI50 (HL-60(TB) leukemia): 1570 nM; TGI (HL-60(TB) leukemia): 4130 nM; GI50 (SR leukemia): 704 nM; TGI (SR leukemia): 5470 nM; GI50 (DU-145 prostate): 1680 nM; TGI (DU-145 prostate): 3650 nM; GI50 (HOP-92 NSCLC): 1190 nM; TGI (HOP-92 NSCLC): 2890 nM; GI50 (SNB-75 CNS): 1160 nM; TGI (SNB-75 CNS): 2370 nM; GI50 (786-0 renal): 1780 nM; TGI (786-0 renal): 3480 nM; GI50 (COLO 205 colon): 2080 nM; TGI (COLO 205 colon): 4910 nM; GI50 (HS 578T breast): 2170 nM; TGI (HS 578T breast): 5940 nM; GI50 (LOX IMVI melanoma): 1320 nM; TGI (LOX IMVI melanoma): 2610 nM; GI50 (MCF7 breast): 781 nM; TGI (MCF7 breast): 4320 nM; GI50 (HT29 colon): 1210 nM; TGI (HT29 colon): 7540 nM; GI50 (IGROV1 ovarian): 1150 nM; TGI (IGROV1 ovarian): 2690 nM; GI50 (PC-3 prostate): 1600 nM; TGI (PC-3 prostate): 3710 nM; GI50 (K-562 leukemia): 1200 nM; TGI (K-562 leukemia): > 100000 nM; GI50 (SK-MEL-28 melanoma): 1810 nM; TGI (SK-MEL-28 melanoma): 3350 nM; GI50 (CCRF-CEM leukemia): 1260 nM; TGI (CCRF-CEM leukemia): > 100000 nM; GI50 (SF-539 CNS): 1760 nM; TGI (SF-539 CNS): 3250 nM; GI50 (SF-268 CNS): 1520 nM; TGI (SF-268 CNS): 3040 nM; GI50 (SN12C renal): 1810 nM; TGI (SN12C renal): 4070 nM; GI50 (HCT-15 colon): 1060 nM; TGI (HCT-15 colon): 2910 nM; GI50 (A498 renal): 1790 nM; TGI (A498 renal): 3220 nM; GI50 (NCI-H522 lung): 1440 nM; TGI (NCI-H522 lung): 4040 nM; GI50 (UO-31 renal): 1150 nM; TGI (UO-31 renal): 2360 nM
